Where “and” joins values, the source holds several entries; their conditions need not be identical. Identical values can stand only once.
Columns and labels:
PAC1 receptor [1] = biological target: T1, PAC1 receptor (Homo sapiens, UniProt P41586); assay: Inhibition of 20 nM PACAP-stimulated ERK activation in stable PAC1 receptor HEK cells (Western blot); assay type: cell-based; set-up: expressed in transfected cells; settings: for efficacy and potency in blocking PACAP/PAC1 receptor-stimulated ERK activation, in words: stable human HEK PAC1 receptor cell line, FIGS. 1 and 2
T1 sequence (P41586 21-468): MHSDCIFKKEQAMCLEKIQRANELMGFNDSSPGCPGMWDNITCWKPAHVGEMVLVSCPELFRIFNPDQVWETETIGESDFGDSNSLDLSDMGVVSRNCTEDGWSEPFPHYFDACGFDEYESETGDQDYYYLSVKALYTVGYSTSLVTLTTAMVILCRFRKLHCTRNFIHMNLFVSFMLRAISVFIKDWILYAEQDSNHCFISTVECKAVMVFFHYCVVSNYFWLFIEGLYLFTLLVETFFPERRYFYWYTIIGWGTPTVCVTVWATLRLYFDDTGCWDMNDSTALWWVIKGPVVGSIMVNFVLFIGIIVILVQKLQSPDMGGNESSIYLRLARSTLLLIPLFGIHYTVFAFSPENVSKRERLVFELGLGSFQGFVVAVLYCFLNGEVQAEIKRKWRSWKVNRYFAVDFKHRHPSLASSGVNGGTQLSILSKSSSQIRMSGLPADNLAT

rats = assay: Elevated plus maze after bilateral BNST infusion, PACAP-induced anxiety-like responses; assay type: in vivo, rat; settings: FIG. 3B
Description: FIG. 3 depicts that PAC1 receptor antagonist RJB-145 blocks PACAP-induced signaling and anxiety-like behavioral responses. […] 20 μM RJB-145 blocked PACAP-stimulated ERK activation nearly 75%. Data represent mean +/− SEM; n=3−4 wells/group. […] Anxiety ridden rats avoid the open arms of the maze and prefer traveling into the closed arms. […] Data represent mean +/− SEM; n=8-10 animals/group; **, statistically different from vehicle, RJB145 and PACAP+RJB145 at p<0.01.

PAC1 receptor [2] = biological target: T1, PAC1 receptor; assay: PACAP-induced calcium flux in HEK PAC1R stable cell lines; assay type: cell-based; set-up: expressed in transfected cells; settings: 20 nM PACAP, FIG. 3A, read-out: calculated IC50, attenuation of PACAP-induced calcium flux
PAC1 receptor [3] = biological target: T1, PAC1 receptor; assay: PAC1 receptor-stimulated adenylyl cyclase cAMP activation; assay type: cell-based
PAC1 receptor [4] = biological target: T1, PAC1 receptor; set-up: expressed in transfected cells; settings: earlier work, WO/2020/168068; cited from earlier work
[5] = test system: PACAP-induced anxiety-related behaviors; settings: earlier work, WO/2020/168068; cited from earlier work
PAC1 receptor [6] = biological target: T1, PAC1 receptor; set-up: expressed in transfected cells; settings: earlier work, WO/2020/168068; cited from earlier work; remark: listed apart in the source
PAC1 receptor [7] = biological target: T1, PAC1 receptor; set-up: expressed in transfected cells; settings: earlier work, WO/2020/168068; cited from earlier work; remark: listed apart in the source
[8] = 20 nM PACAP, PAC1 receptor HEK cells, FIG. 2, read-out: apparent IC50, inhibition of PACAP-stimulated ERK activation

Row | IC50 (PAC1 receptor [1]; [8]) | efficacy and potency in blocking PACAP/PAC1 receptor-stimulated ERK activation, in words (PAC1 receptor [1]) | IC50 (PAC1 receptor [1]; 20 nM PACAP, HEK PAC1R stable cell lines, FIG. 3A, read-out: calculated IC50, attenuation of PACAP-induced ERK activation) | block of PACAP-stimulated ERK activation (PAC1 receptor [1]; 20 μM compound, FIG. 3A) | blocking PACAP/PAC1 receptor stimulated ERK activation (Western blot) (PAC1 receptor [1]; 25 μM pretreatment, 20 nM PACAP, FIG. 1) | IC50 (PAC1 receptor [2]) | effect on PAC1 receptor-stimulated adenylyl cyclase cAMP activation (PAC1 receptor [3]) | Structure (SMILES) | behavioral effect on elevated plus maze, compound infused alone (rats; 20 μM/0.5 μL bilaterally into BNST of rats, 5 min per trial) | antagonism of PACAP-induced anxiety-like responses (open arm time) on elevated plus maze (rats; PACAP+RJB-145 infused bilaterally into BNST of rats) | PAC1 receptor internalization (PAC1 receptor [4]) | blocking PACAP-induced anxiety-related behaviors in vivo [5] | PAC1 receptor endosomal ERK signaling (PAC1 receptor [6]) | combination with GCGR antagonist MK-0893 to inhibit PACAP/PAC1 receptor mediated ERK activation (PAC1 receptor [6]) | PACAP-stimulated PAC1 receptor plasma membrane calcium signaling (PAC1 receptor [7])
1 | ~25 µM | appeared less potent |  |  |  |  |  | O=C(Nc1ccc(S(=O)(=O)Nc2ccccc2)cc1)c1cc2ccccc2[nH]1 [RJB-88] |  |  |  |  |  |  | 
2 | ~10 µM and 10 µM | shows efficacy and potency | 9 µM | ~75% | demonstrate efficacy | 8.5 µM | without significant effects | O=C(Nc1ccc(S(=O)(=O)Nc2cc(F)cc(F)c2)cc1)c1cc2ccccc2[nH]1 [RJB-145] | no behavioral effects compared to vehicle | completely antagonize the PACAP-induced anxiety-like responses to control vehicle levels |  |  |  |  | 
3 | 5 to 8 µM |  |  |  |  |  |  | O=C(N/N=C/c1cccc2c1ccn2Cc1cc(F)cc(F)c1)c1ccc(O)c(Cl)c1 [JF-214] |  |  | blocked | demonstrated efficacy | blocked | acted synergistically | blocked

From patent US20240417374A1, “SMALL MOLECULE ANTAGONIST TO PACAP RECEPTOR AND USES THEREOF” (The University of Vermont and State Agricultural College, priority 2021, published 2024)
